Experimental data: US8415351B2 (priority 2007, dated 2013)
Where two headings read alike, the source gives them in different places.

How the values were obtained:
[1] = biological target: T1, HCV polymerase 1A (Δ21 NS5B, H77) (Hepatitis C virus genotype 1a, UniProt P27958); assay: biochemical
T1 construct: 20 to 50 nM Δ21 NS5B
Summary of the method: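 Incorporation of 1 μM ^3H-UTP, with 20 μM each of CTP and ATP on 5 nM template RNA, ran 2–4 h at room temperature. Spermine-precipitated product was filtered and scintillation-counted. IC50 came from tight-binding non-linear regression of cpm against inhibitor concentration.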

[2] = biological target: T2, HCV polymerase 1B (Δ21 NS5B, BK) (Hepatitis C virus genotype 1b, UniProt P26663); assay: biochemical
T2 construct: 20 to 50 nM Δ21 NS5B
Summary of the method: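 Δ21 NS5B (genotype 1b, BK […]) preincubated 15 min RT with inhibitor, 2 mM MnCl2, pH 7.4, 60–125 μM GTP; started with 20 μM CTP/ATP, 1 μM 3H-UTP, 5 nM template RNA, run 2–4 h RT. Spermine-precipitated RNA filter-captured, scintillation counted; IC50 from tight-binding (Morrison) fit.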

[3] = tested on: genotype 1a-H77 subgenomic replicon cell line; assay: microbe, parasite or virus in culture; format: cell-based, HCV; conditions: read-out: EC50 1a
[4] = tested on: genotype 1b-Con1 subgenomic replicon cell line; assay: microbe, parasite or virus in culture; format: cell-based, HCV; conditions: read-out: EC50 1b

T2 sequence (P26663 2420-2989, stated change not applied): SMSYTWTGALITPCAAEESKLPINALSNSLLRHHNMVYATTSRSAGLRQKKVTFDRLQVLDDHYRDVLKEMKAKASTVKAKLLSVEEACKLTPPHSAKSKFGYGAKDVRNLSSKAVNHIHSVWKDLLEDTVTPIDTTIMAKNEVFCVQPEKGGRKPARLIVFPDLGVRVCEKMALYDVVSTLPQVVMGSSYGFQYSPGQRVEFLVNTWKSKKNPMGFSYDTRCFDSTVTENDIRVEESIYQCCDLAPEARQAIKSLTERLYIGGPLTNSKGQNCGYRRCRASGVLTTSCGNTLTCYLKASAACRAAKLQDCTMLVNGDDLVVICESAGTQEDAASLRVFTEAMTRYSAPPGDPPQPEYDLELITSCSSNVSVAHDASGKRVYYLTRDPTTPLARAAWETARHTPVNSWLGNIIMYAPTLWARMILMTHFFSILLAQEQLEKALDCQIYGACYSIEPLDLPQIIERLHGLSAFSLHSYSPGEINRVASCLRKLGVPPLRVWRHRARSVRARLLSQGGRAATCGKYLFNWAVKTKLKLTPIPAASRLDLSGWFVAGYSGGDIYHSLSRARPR
T1 sequence (P27958 2421-2990, stated change not applied): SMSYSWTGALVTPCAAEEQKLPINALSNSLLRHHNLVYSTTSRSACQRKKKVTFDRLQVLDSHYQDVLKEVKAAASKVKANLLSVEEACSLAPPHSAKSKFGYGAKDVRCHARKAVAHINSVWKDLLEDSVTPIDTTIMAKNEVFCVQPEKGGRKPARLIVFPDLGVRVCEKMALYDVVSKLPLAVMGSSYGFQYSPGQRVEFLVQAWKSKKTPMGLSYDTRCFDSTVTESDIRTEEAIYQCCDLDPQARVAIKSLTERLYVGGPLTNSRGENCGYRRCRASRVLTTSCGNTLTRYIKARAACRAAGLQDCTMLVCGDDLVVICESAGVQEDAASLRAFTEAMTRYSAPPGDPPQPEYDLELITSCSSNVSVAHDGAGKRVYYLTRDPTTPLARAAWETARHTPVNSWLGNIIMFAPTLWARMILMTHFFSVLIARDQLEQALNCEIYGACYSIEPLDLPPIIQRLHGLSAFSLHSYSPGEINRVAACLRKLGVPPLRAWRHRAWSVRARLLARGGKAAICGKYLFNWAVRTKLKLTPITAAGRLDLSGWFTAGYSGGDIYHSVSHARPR

Row | Compound | IC50 ([1]; IC50 1a) [nM] | IC50 [2] [nM] | EC50 ([3]; Hepatitis C virus) [nM] | EC50 ([4]; Hepatitis C virus) [nM] | IC50 ([1]; read-out: IC50 1a) [nM] | IC50 ([2]; HCV polymerase 1b, read-out: IC50 1b) [nM] | EC50 ([3]; genotype 1a-H77 replicon, luciferase reporter) [nM] | EC50 ([4]; genotype 1b-Con1 replicon, luciferase reporter) [nM]
1 | COc1cc(NS(C)(=O)=O)ccc1NC(=O)c1cc(N2CCC(=O)NC2=O)cc(C(C)(C)C)c1OC [IA-L3-1.85, 3-tert-butyl-5-(2,4-dioxotetrahydropyrimidin-1(2H)-yl)-2-methoxy-N-(2-methoxy-4-(methylsulfonamido)phenyl)benzamide] | 100 to 1000 | 100 to 1000 | 100 to 1000 | 100 to 1000 | – | – | – | –
2 | CC(C)(C)c1cc(N2CCC(=O)NC2=O)cc(C(=O)Nc2scc(CNS(C)(=O)=O)c2S(N)(=O)=O)c1O [IA-L3-1.89, 3-tert-butyl-5-(2,4-dioxotetrahydropyrimidin-1(2H)-yl)-2-hydroxy-N-(4-(methylsulfonamidomethyl)-3-sulfamoylthiophen-2-yl)benzamide] | 10 to 100 | 10 to 100 | 100 to 1000 | 10 to 100 | – | – | – | –
3 | COc1c(C(=O)Nc2scc(CNS(C)(=O)=O)c2S(N)(=O)=O)cc(N2CCC(=O)NC2=O)cc1C(C)(C)C [IA-L3-1.90, 3-tert-butyl-5-(2,4-dioxotetrahydropyrimidin-1(2H)-yl)-2-methoxy-N-(4-(methylsulfonamidemethyl)-3-sulfamoylthiophen-2-yl)benzamide] | 10 to 100 | 10 to 100 | > 1000 | 100 to 1000 | – | – | – | –
4 | CC(C)(C)c1cc(N2CCC(=O)NC2=O)cc(C(=O)Nc2cc(CNS(C)(=O)=O)cs2)c1O [IA-L3-1.91, 3-tert-butyl-5-(2,4-dioxotetrahydropyrimidin-1(2H)-yl)-2-hydroxy-N-(4-(methylsulfonamidomethyl)thiophen-2-yl)benzamide] | 10 to 100 | 10 to 100 | 100 to 1000 | 100 to 1000 | – | – | – | –
5 | COc1c(C(=O)Nc2cc(CNS(C)(=O)=O)cs2)cc(N2CCC(=O)NC2=O)cc1C(C)(C)C [IA-L3-1.94, 3-tert-butyl-5-(2,4-dioxotetrahydropyrimidin-1(2H)-yl)-2-methoxy-N-(4-(methylsulfonamidomethyl)thiophen-2-yl)benzamide] | 100 to 1000 | 100 to 1000 | > 1000 | 100 to 1000 | – | – | – | –
6 | CN(Cc1csc(NC(=O)c2cc(N3CCC(=O)NC3=O)cc(C(C)(C)C)c2O)c1)S(C)(=O)=O [IA-L3-1.95, 3-tert-butyl-5-(2,4-dioxotetrahydropyrimidin-1(2H)-yl)-2-hydroxy-N-(4-((N-methylmethylsulfonamido)methyl)thiophen-2-yl)benzamide] | 100 to 1000 | 10 to 100 | > 1000 | > 1000 | – | – | – | –
7 | COc1c(C(=O)Nc2cc(CN(C(=O)OC(C)(C)C)S(C)(=O)=O)cs2)cc(N2CCC(=O)NC2=O)cc1C(C)(C)C [IA-L3-1.96, tert-butyl (5-(3-tert-butyl-5-(2,4-dioxotetrahydropyrimidin-1(2H)-yl)-2-methoxybenzamido)thiophen-3-yl)methyl(methylsulfonyl)carbamate] | 100 to 1000 | > 1000 | 100 to 1000 | > 1000 | – | – | – | –
8 | COc1c(C(=O)Nc2cc(CN(C)S(C)(=O)=O)cs2)cc(N2CCC(=O)NC2=O)cc1C(C)(C)C [IA-L3-1.97, 3-tert-butyl-5-(2,4-dioxotetrahydropyrimidin-1(2H)-yl)-2-methoxy-N-(4-((N-methylmethylsulfonamido)methyl)thiophen-2-yl)benzamide] | > 1000 | > 1000 | > 1000 | > 1000 | – | – | – | –
9 | CC(C)(C)OC(=O)N(Cc1csc(NC(=O)c2cc(N3CCC(=O)NC3=O)cc(C(C)(C)C)c2O)c1)S(C)(=O)=O [IA-L3-1.98, tert-butyl (5-(3-tert-butyl-5-(2,4-dioxotetrahydropyrimidin-1(2H)-yl)-2-hydroxybenzamido)thiophen-3-yl)methyl(methylsulfonyl)carbamate] | > 1000 | 100 to 1000 | > 1000 | 100 to 1000 | – | – | – | –
10 | COc1c(C(=O)N[C@H]2CC[C@H](NS(C)(=O)=O)CC2)cc(N2CCC(=O)NC2=O)cc1C(C)(C)C [IA-L3-1.103, 3-tert-butyl-5-(2,4-dioxotetrahydropyrimidin-1(2H)-yl)-2-methoxy-N-((1r,4r)-4-(methylsulfon amido)cyclohexyl)benzamide] | – | – | – | – | 100 to 1000 | > 1000 | > 1000 | > 1000
11 | CC(C)(C)c1cc(N2CCC(=O)NC2=O)cc(C(=O)Nc2nccs2)c1O [IA-L3-1.104, 3-tert-butyl-5-(2,4-dioxotetrahydropyrimidin-1(2H)-yl)-2-hydroxy-N-(thiazol-2-yl)benzamide] | > 1000 | 100 to 1000 | > 1000 | > 1000 | – | – | – | –
12 | CC(C)(C)c1cc(C(=O)Nc2ccc(NS(C)(=O)=O)cc2)cc(N2CCC(=O)NC2=O)c1 [IA-L3-1.105, 3-tert-butyl-5-(2,4-dioxotetrahydropyrimidin-1(2H)-yl)-N-(4-(methylsulfonamido)phenyl)benzamide] | 100 to 1000 | 10 to 100 | > 1000 | > 1000 | – | – | – | –
13 | COc1c(C(=O)Nc2ccc(N)cc2)cc(N2CCC(=O)NC2=O)cc1C(C)(C)C [IA-L3-1.107, N-(4-aminophenyl)-3-tert-butyl-5-(2,4-dioxotetrahydropyrimidin-1(2H)-yl)-2-methoxy benzamide] | > 1000 | > 1000 | > 1000 | > 1000 | – | – | – | –
14 | CCc1cc(N2CCC(=O)NC2=O)cc(C(=O)Nc2ccc(NS(C)(=O)=O)cc2)c1OC [IA-L3-1.112, 5-(2,4-dioxotetrahydropyrimidin-1(2H)-yl)-3-ethyl-2-methoxy-N-(4-(methylsulfonamido)phenyl)benzamide] | 100 to 1000 | 100 to 1000 | > 1000 | 100 to 1000 | – | – | – | –
15 | CCc1cc(N2CCC(=O)NC2=O)cc(C(=O)Nc2ccc(NS(C)(=O)=O)cc2)c1O [IA-L3-1.113, 5-(2,4-dioxotetrahydropyrimidin-1(2H)-yl)-3-ethyl-2-hydroxy-N-(4-(methylsulfonamido)phenyl)benzamide] | > 1000 | > 1000 | > 1000 | > 1000 | – | – | – | –
16 | CCNC(=O)CN1C(=O)CCN(c2cc(C(=O)Nc3ccc(N(CC(=O)NCC)S(C)(=O)=O)cc3)c(OC)c(C(C)(C)C)c2)C1=O [IA-L3-1.115, 3-tert-butyl-5-(3-(2-(ethylamino)-2-oxoethyl)-2,4-dioxotetrahydropyrimidin-1(2H)-yl)-N-(4-(N-(2-(ethylamino)-2-oxoethyl)methylsulfonamido)phenyl)-2-methoxybenzamide] | > 1000 | > 1000 | > 1000 | > 1000 | – | – | – | –
17 | COc1cc(NS(C)(=O)=O)ccc1NC(=O)c1cc(N2CCC(=O)NC2=O)cc(C(C)(C)C)c1O [IA-L3-1.119, 3-tert-butyl-5-(2,4-dioxotetrahydropyrimidin-1(2H)-yl)-2-hydroxy-N-(2-methoxy-4-(methylsulfonamido)phenyl)benzamide] | 10 to 100 | < 10 | 100 to 1000 | 10 to 100 | – | – | – | –
18 | COc1c(C(=O)Nc2cccc(CNS(C)(=O)=O)c2)cc(N2CCC(=O)NC2=O)cc1C(C)(C)C [IA-L3-1.120, 3-tert-butyl-5-(2,4-dioxotetrahydropyrimidin-1(2H)-yl)-2-methoxy-N-(3-(methylsulfonamidomethyl)phenyl)benzamide] | 100 to 1000 | 100 to 1000 | > 1000 | > 1000 | – | – | – | –
19 | COc1ccc(OC)c(S(=O)(=O)Nc2ccc(NC(=O)c3cc(N4CCC(=O)NC4=O)cc(C(C)(C)C)c3OC)cc2)c1 [IA-L3-1.121, 3-tert-butyl-N-(4-(2,5-dimethoxyphenylsulfonamido)phenyl)-5-(2,4-dioxotetrahydro-pyrimidin-1(2H)-yl)-2-methoxybenzamide] | 100 to 1000 | 100 to 1000 | > 1000 | 100 to 1000 | – | – | – | –
20 | CCCC(=O)OCN(c1ccc(NC(=O)c2cc(N3CCC(=O)NC3=O)cc(C(C)(C)C)c2OC)cc1)S(C)(=O)=O [IA-L3-1.123, (N-(4-(3-tert-butyl-5-(2,4-dioxotetrahydropyrimidin-1(2H)-yl)-2-methoxybenzamido)phenyl)methylsulfonamido)methyl butyrate] | > 1000 | > 1000 | 100 to 1000 | 10 to 100 | – | – | – | –
21 | CC(C)(C)c1cc(N2CCC(=O)NC2=O)cc(C(=O)Nc2ccc3ncccc3c2)c1O [IA-L3-2.1, 3-tert-butyl-5-(2,4-dioxotetrahydropyrimidin-1(2H)-yl)-2-hydroxy-N-(quinolin-6-yl)benzamide] | > 1000 | 100 to 1000 | > 1000 | > 1000 | – | – | – | –
22 | COc1c(C(=O)Nc2ccc3c(c2)CC(=O)N3)cc(N2CCC(=O)NC2=O)cc1C(C)(C)C [IA-L3-2.2, 3-tert-butyl-5-(2,4-dioxotetrahydropyrimidin-1(2H)-yl)-2-methoxy-N-(2-oxoindolin-5-yl)benzamide] | 100 to 1000 | 100 to 1000 | > 1000 | > 1000 | – | – | – | –
23 | COc1c(C(=O)Nc2ccc3c(c2)CCC(=O)N3)cc(N2CCC(=O)NC2=O)cc1C(C)(C)C [IA-L3-2.4, 3-tert-butyl-5-(2,4-dioxotetrahydropyrimidin-1(2H)-yl)-2-methoxy-N-(2-oxo-1,2,3,4-tetra hydroquinolin-6-yl)benzamide] | > 1000 | > 1000 | > 1000 | > 1000 | – | – | – | –
